Test results: US7888286B2, “Method of selectively controlling morning glory (Ipomoea) spp” (Bayer CropScience AG, priority 2006, dated 2011)
Counter-ions that a name gives are not always drawn.

Assays:
[1] = test system: morning glory spp. such as Ipomoea triloba L. and Ipomoea hederacea Jacq.; assay: Morning glory spp. control test with bialaphos solution (soybean field); format: in vivo; conditions: for Herbicidal effect 1 week after: water 100 L/10 a, sprayed up to 20 cm above ground
Experimental: On Aug. 9, 2005, a bialaphos solution (active ingredient amount: 18%, used in the form of the sodium salt bialaphos-sodium, amount calculated for bialaphos) was sprayed (solution amount: 500 to 1500 mL/10 a, water amount: 100 L/10 a) to morning glory spp. (height: 55 cm to 70 cm) such as Ipomoea triloba L. and Ipomoea hederacea Jacq. generated between ridges in a soybean field and coiled around soybean, from land surface up to a height of 20 cm above ground, and the herbicidal effect thereafter was observed.

morning glory spp. [2] = assay: Herbicidal property on weeds; format: in vivo; conditions: for Herbicidal activity: all of the tested morning glory spp.
Abutilon theophrasti = assay: Herbicidal property on weeds; conditions: in vivo
soybean = assay: Control machine-spraying of glufosinate (salt) on soybean inter-ridge: phytotoxicity and bean weight of soybean; format: in vivo; conditions: for Bean weight: soybean field with rampant morning glory spp., 500 mL/10 a sprayed August 9, crop November 11, non-sprayed district 96 ± 21
Experimental: (§1) Soybean cultivation in the Tokai region is often carried out with large scale by farming associates and large scale farmhouses. Under such circumstances, morning glory spp. cause a serious problem in soybean fields during its growth period, and its controlling method is required to be established quickly. In soybean fields in Anjo City, Aichi Prefecture showing a problem of morning glory spp., a test for proving applicability of controlling morning glory spp. was performed using a control machine-spraying intending laborsaving.
(§2) A commercially available spraying apparatus was attached to the front side of a riding-type control machine, and glufosinate was sprayed from near ground edge. The nozzle position can be varied depending on ridge width and soybean height. In a theory of spraying a herbicide, the herbicide is introduced from a herbicide tank through a hose so that the herbicide can be sprayed on a lower part between ridges (suspending mode). Some farmhouses devise by themselves this spraying apparatus.

Ipomoea hederacea Jacq. = assay: Morning glory spp. control test: glufosinate (salt) sprayed only on lower half portion of hill; format: in vivo; set-up: key to Effect, upper half portion of hill / Effect, lower half portion of hill: +++ complete death; ++ almost death; + partial death; − no effect
Experimental: (§3) In the case of spraying of glufosinate (salt) only on the lower half portion of a hill of morning glory spp:
(§4) Ipomoea hederacea Jacq. and Ipomoea triloba L. generated in the form of grapevine and at the edge of a soybean field in Anjo City, Aichi Prefecture were tested. A 200-fold diluted solution of glufosinate was sprayed only on the lower half portion of the hill while covering the upper half portion thereof with plastic film so that the solution was not sprayed thereon. Thereafter, effects on the lower and upper half portions were observed.

Sida spinosa L. = assay: Herbicidal property on weeds; conditions: in vivo
Ipomoea lacunosa L. = assay: Morning glory spp. control test: glufosinate (salt) sprayed only on upper portion of stem (pot test); format: in vivo; set-up: key to Effect, leaf 6 / Effect, leaf 5 / Effect, leaf 4 / Effect, leaf 3 / Effect, leaf 2 / Effect, leaf 1 / Effect, root / Effect, peak portion of stem / Effect, leaf 8 / Effect, leaf 7: +++ complete death; ++ almost death; + partial death; − no effect
Experimental: In the case of spraying of glufosinate (salt) only on the upper portion of morning glory spp:
Ipomoea lacunosa L. (eight leaves) in a pot was tested. A 200-fold diluted solution of glufosinate (salt) was sprayed only on the upper portion of a stem while preventing spraying on the lower portion thereof. Thereafter, effects on respective portions were observed.

Ipomoea triloba L. = assay: Morning glory spp. control test: glufosinate (salt) sprayed only on lower half portion of hill; format: in vivo; set-up: key: +++ complete death; ++ almost death; + partial death; − no effect; conditions: treated Aug. 13, 2005, examined August 23
Experimental: as §3, §4

HIROHAFUURINHOZUKI = assay: Herbicidal property on weeds; conditions: in vivo
morning glory spp. [3] = assay: Control machine-spraying of glufosinate (salt) on soybean inter-ridge: herbicidal effect; format: in vivo; conditions: 500 mL/10 a in 100 L/10 a water
Experimental: as §1, §2
In spraying (FIGS. 1, 2 and 3), morning glory spp. developed almost all over the field, and some of them coiled around soybean, the peak portion thereof extending up to over the head portion of soybean. FIG. 1 is a photograph showing full view of glufosinate spraying. FIG. 2 is a photograph showing glufosinate (salt) sprayed part. FIG. 3 is a photograph showing a herbicidal process of glufosinate (salt). […] FIG. 4 is a photograph showing the killing effect of glufosinate (salt) ranging to the peak portion (shown with an arrow) of the stem of Ipomoea triloba L. (14 days after spraying, August 23). […] This effect appeared even in the peak portion of the stem extending up to over the head portion of the soybean, and in this portion, leaves and stems of morning glory spp. turned to yellow. […] From these phenomena, it was believed that the morning glory spp. show very higher sensitivity to glufosinate (salt) than soybean.

Solanum carolinense = assay: Herbicidal property on weeds; conditions: in vivo
Aeschynomene indica = assay: Herbicidal property on weeds; conditions: in vivo
[4] = scattering to soybean, 500 mL/10 a
[5] = not sprayed, 200-fold diluted solution sprayed from peak to between sixth and seventh leaves, examined November 6
[6] = sprayed region, 200-fold diluted solution sprayed on upper portion of stem, treated Oct. 23, 2005, examined November 6

**Q.** Which results are given for `C[C@H](NC(=O)[C@H](C)NC(=O)[C@@H](N)CCP(C)(=O)O)C(=O)O` [bialaphos solution, bialaphos]?
**A.** Herbicidal effect 1 week after ([1]; solution amount 500 mL/10 a): died up to the peak portion of vine; Herbicidal effect 1 week after ([1]; solution amount 1000 mL/10 a): died up to the peak portion of vine; Herbicidal effect 1 week after ([1]; solution amount 1500 mL/10 a): died up to the peak portion of vine; Onset of effect after the treatment ([1]; sprayed from land surface up to 20 cm above ground, 500 to 1500 mL/10 a): observed from the next day after the treatment

**Q.** Which results are given for `CC(C)N.O=C(O)CNCP(=O)(O)O` [glyphosate isopropylammonium]?
**A.** Herbicidal activity at the field level (morning glory spp. [2]; at the field level in this test range): insufficient; Manifestation of the activity (morning glory spp. [2]; on these plants (morning glory spp. and the other tested weeds)): specifically slow manifestation of the activity

**Q.** With `CP(=O)(O)CCC(N)C(=O)O` (stereo not shown) [glufosinate (salt), glufosinate] as the compound, how does the Herbicidal activity (Abutilon theophrasti) read?
**A.** high activity

**Q.** And the “Phytotoxicity in soybean on spraying only the lower portion of a stem of morning glory spp.” value (soybean; control machine spraying in soybean field)?
**A.** scarce phytotoxicity

**Q.** And the “Phytotoxicity in the cotyledon and the first leaf of soybean” value (soybean; [4])?
**A.** observed

**Q.** And the “Phytotoxicity in the upper leaves of soybean” value (soybean; [4])?
**A.** little phytotoxicity

**Q.** What about the Bean weight (soybean; listed as Glufosinate (salt)) of the same compound?
**A.** 193 ± 29 kg/10 a

**Q.** What about the Bean weight (soybean; listed as glufosinate) of the same compound?
**A.** 193 kg/10 a

**Q.** What about the “Effect, lower half portion of hill” value (Ipomoea hederacea Jacq.; 200-fold diluted solution sprayed on lower half portion (sprayed portion), treated Aug. 13, 2005, examined August 23) of the same compound?
**A.** +++

**Q.** And the “Effect, upper half portion of hill” value (Ipomoea hederacea Jacq.; 200-fold diluted solution sprayed on lower half portion only, upper half not sprayed, treated Aug. 13, 2005, examined August 23, hills around 70 cm)?
**A.** +++

**Q.** What about the “Where activity appeared after spraying only the lower half portion of the hill” value (Ipomoea hederacea Jacq.; morning glory spp. (Ipomoea hederacea Jacq. and Ipomoea triloba L., see Table 1)) of the same compound?
**A.** appeared not only in the lower half portion of the hill but also in the peak thereof

**Q.** And the Herbicidal activity (Sida spinosa L.)?
**A.** high activity

**Q.** And the “Effect, leaf 1” value (Ipomoea lacunosa L.; [5])?
**A.** −

**Q.** And the “Effect, leaf 2” value (Ipomoea lacunosa L.; [5])?
**A.** −

**Q.** And the “Effect, leaf 3” value (Ipomoea lacunosa L.; [5])?
**A.** −

**Q.** And the “Effect, leaf 4” value (Ipomoea lacunosa L.; [5])?
**A.** −

**Q.** And the “Effect, leaf 5” value (Ipomoea lacunosa L.; [5])?
**A.** ++

**Q.** What about the “Effect, leaf 6” value (Ipomoea lacunosa L.; [5]) of the same compound?
**A.** ++

**Q.** What about the “Effect, root” value (Ipomoea lacunosa L.; [5]) of the same compound?
**A.** −

**Q.** What about the “Effect in the lower leaves and in root after spraying only the upper portion of the stem” value (Ipomoea lacunosa L.; see Table 2) of the same compound?
**A.** not observed

**Q.** And the “Effect under the sprayed region after spraying only the upper portion of the stem” value (Ipomoea lacunosa L.; see Table 2)?
**A.** observed in one to two leaves under the sprayed region

**Q.** And the “Effect, leaf 7” value (Ipomoea lacunosa L.; [6])?
**A.** +++

**Q.** And the “Effect, leaf 8” value (Ipomoea lacunosa L.; [6])?
**A.** +++

**Q.** And the “Effect, peak portion of stem” value (Ipomoea lacunosa L.; [6])?
**A.** +++

**Q.** What about the “Effect, lower half portion of hill” value (Ipomoea triloba L.; 200-fold diluted solution sprayed on lower half portion (sprayed portion)) of the same compound?
**A.** +++

**Q.** What about the “Effect, upper half portion of hill” value (Ipomoea triloba L.; 200-fold diluted solution sprayed on lower half portion only, upper half not sprayed, hills around 70 cm) of the same compound?
**A.** +++

**Q.** What about the Herbicidal activity (HIROHAFUURINHOZUKI) of the same compound?
**A.** high activity

**Q.** What about the “Herbicidal effect 4 days after spraying” value (morning glory spp. [3]; August 13) of the same compound?
**A.** most of leaves at grapevine-form parts of the morning glory spp. died

**Q.** What about the “Herbicidal effect 14 days after spraying” value (morning glory spp. [3]; August 23) of the same compound?
**A.** most of the morning glory spp. died up to the peak portion of the stem

**Q.** What about the “Onset of herbicidal effect after spraying” value (morning glory spp. [3]; soybean field) of the same compound?
**A.** observed from the next day after spraying

**Q.** What about the “Herbicidal activity at low herbicidal amount” value (morning glory spp. [2]; 100 mL/10 a) of the same compound?
**A.** high activity

**Q.** And the Herbicidal activity (morning glory spp. [2])?
**A.** high activity

**Q.** What about the Herbicidal activity (Solanum carolinense) of the same compound?
**A.** high activity

**Q.** And the Herbicidal activity (Aeschynomene indica)?
**A.** high activity

**Q.** For `CC(C)N1C(=O)c2ccccc2NS1(=O)=O` [Pentazone], which Herbicidal activity (Abutilon theophrasti) is on record?
**A.** high activity

**Q.** And the Herbicidal activity (morning glory spp. [2])?
**A.** lower activity
